# Tests used:
# B. cereus ATCC 11778 = experiment: NCCLS broth microdilution MIC, B. cereus; assay type: cell-based, Bacillus cereus; settings: organism A = B. cereus ATCC 11778; for MIC: Bacillus cereus, ATCC11778, read-out: Minimum Inhibitory Concentration (MIC)
# Description: (§1) Compounds according to this invention were screened for their in vitro activities against selected species of bacteria and fungi. […]
# C. albicans ATCC 38247 = experiment: Antifungal MIC, C. albicans; assay type: cell-based, Candida albicans; settings: organism B = C. albicans ATCC 38247; for MIC: Candida albicans, ATCC38247, read-out: Minimum Inhibitory Concentration (MIC)
# Description: as §1
# E. faecalis ATCC 29212 = experiment: NCCLS broth microdilution MIC, E. faecalis; assay type: cell-based; settings: organism C = E. faecalis ATCC 29212; for MIC: Enterococcus faecalis, ATCC29212, read-out: Minimum Inhibitory Concentration (MIC)
# Description: as §1
# S. aureus ATCC 13709 = experiment: NCCLS broth microdilution MIC, S. aureus (MSSA); assay type: cell-based, Staphylococcus aureus; settings: organism E = S. aureus ATCC 13709 (MSSA); for MIC: Staphylococcus aureus, read-out: Minimum Inhibitory Concentration (MIC)
# Description: as §1
# S. aureus ATCC 27660 = experiment: NCCLS broth microdilution MIC, S. aureus (MRSA); assay type: cell-based, Staphylococcus aureus; settings: organism F = S. aureus ATCC 27660 (MRSA); for MIC: Staphylococcus aureus, read-out: Minimum Inhibitory Concentration (MIC)
# Description: as §1
# S. pneumoniae ATCC 49619 = experiment: NCCLS broth microdilution MIC, S. pneumoniae ATCC 49619; assay type: cell-based, Streptococcus pneumoniae; settings: organism H = S. pneumoniae ATCC 49619; for MIC: Streptococcus pneumoniae, ATCC49619, read-out: Minimum Inhibitory Concentration (MIC)
# Description: as §1
Structure (SMILES),Minimum Inhibitory Concentration (MIC) (B. cereus ATCC 11778),Minimum Inhibitory Concentration (MIC) (C. albicans ATCC 38247),Minimum Inhibitory Concentration (MIC) (E. faecalis ATCC 29212),Minimum Inhibitory Concentration (MIC) (S. aureus ATCC 13709),Minimum Inhibitory Concentration (MIC) (S. aureus ATCC 27660),Minimum Inhibitory Concentration (MIC) (S. pneumoniae ATCC 49619),MIC (B. cereus ATCC 11778),MIC (C. albicans ATCC 38247),MIC (E. faecalis ATCC 29212),MIC (S. aureus ATCC 13709),MIC (S. aureus ATCC 27660),MIC (S. pneumoniae ATCC 49619)
Cn1cc(NC(=O)c2cc(NC(=O)c3cc(NC(=O)c4cc5ccccc5cn4)c[nH]3)cn2C)cc1C(=O)NCCc1ccccn1 [Ib-69],+++ (+++ = MIC ≦ 4),>32 µg/mL,+++ (+++ = MIC ≦ 4),+++ (+++ = MIC ≦ 4),+++ (+++ = MIC ≦ 4),+++ (+++ = MIC ≦ 4),–,–,–,–,–,–
CN(C)CCNC(=O)c1cc(NC(=O)c2ccc(NC(=O)c3cc(NC(=O)c4cc5ccccc5cn4)cn3C)cc2)cn1C [Ic-16],+++ (+++ = MIC ≦ 4),>32 µg/mL,+++ (+++ = MIC ≦ 4),+++ (+++ = MIC ≦ 4),+++ (+++ = MIC ≦ 4),+++ (+++ = MIC ≦ 4),–,–,–,–,–,–
CN1CCN(CCNC(=O)c2cc(NC(=O)c3ccc(NC(=O)c4cc(NC(=O)c5cc6ccccc6cn5)cn4C)cc3)cn2C)CC1 [Ic-14],>32 µg/mL,>32 µg/mL,>32 µg/mL,+++ (+++ = MIC ≦ 4),+++ (+++ = MIC ≦ 4),+++ (+++ = MIC ≦ 4),–,–,–,–,–,–
Cn1cc(NC(=O)c2cc(NC(=O)c3cc(NC(=O)c4cc5ccccc5cn4)c[nH]3)cn2C)cc1C(=O)NCCc1ccncc1 [Ib-76],+++ (+++ = MIC ≦ 4),>32 µg/mL,+++ (+++ = MIC ≦ 4),+++ (+++ = MIC ≦ 4),+++ (+++ = MIC ≦ 4),+++ (+++ = MIC ≦ 4),–,–,–,–,–,–
Cn1cc(NC(=O)c2cc(NC(=O)c3cc(NC(=O)c4cc5ccccc5cn4)cn3C)cn2CCN2CCOCC2)cc1C(=O)NCCN1CCOCC1 [Ib-57],+++ (+++ = MIC ≦ 4),>32 µg/mL,+++ (+++ = MIC ≦ 4),+++ (+++ = MIC ≦ 4),+++ (+++ = MIC ≦ 4),+++ (+++ = MIC ≦ 4),–,–,–,–,–,–
Cn1cc(NC(=O)c2ccc(NC(=O)c3cc(NC(=O)c4cc5ccccc5cn4)cn3C)cc2)cc1C(=O)NCCCN1CCOCC1 [Ic-11],>32 µg/mL,>32 µg/mL,+++ (+++ = MIC ≦ 4),+++ (+++ = MIC ≦ 4),+++ (+++ = MIC ≦ 4),+++ (+++ = MIC ≦ 4),–,–,–,–,–,–
CC1CN(CCNC(=O)c2cc(NC(=O)c3ccc(NC(=O)c4cc(NC(=O)c5cc6ccccc6cn5)cn4C)cc3)cn2C)CC(C)O1 (stereo not shown) [Ic-17],+++ (+++ = MIC ≦ 4),>32 µg/mL,+++ (+++ = MIC ≦ 4),+++ (+++ = MIC ≦ 4),+++ (+++ = MIC ≦ 4),+++ (+++ = MIC ≦ 4),–,–,–,–,–,–
Cc1cc(NC(=O)c2cc(NC(=O)c3cc(NC(=O)c4cc5ccccc5cn4)cn3C)cn2CCN2CCOCC2)sn1 [Ib-63],+++ (+++ = MIC ≦ 4),>32 µg/mL,+++ (+++ = MIC ≦ 4),+++ (+++ = MIC ≦ 4),+++ (+++ = MIC ≦ 4),+++ (+++ = MIC ≦ 4),–,–,–,–,–,–
Cn1cc(NC(=O)c2cc3ccccc3cn2)cc1C(=O)Nc1cc(C(=O)Nc2ccc3sc(C(=O)NCCN4CCOCC4)cc3c2)n(C)c1 [Id-1],–,–,–,–,–,–,< 4 µg/mL,> 32 µg/mL,< 4 µg/mL,< 4 µg/mL,< 4 µg/mL,< 4 µg/mL
CC(=O)[O-].Cc1cc(NC(=O)c2cc(NC(=O)c3cc(NC(=O)c4cc5ccccc5cn4)cn3C)cn2CCC[N+](C)(C)C)sn1 [Ib-74],>32 µg/mL,>32 µg/mL,>32 µg/mL,>32 µg/mL,>32 µg/mL,>32 µg/mL,–,–,–,–,–,–
Cn1cc(NC(=O)c2cc(NC(=O)c3cc4ccccc4cn3)cn2CCCN2CCCC2)cc1C(=O)Nc1ccc2cnccc2c1 [Ib-91],+++ (+++ = MIC ≦ 4),>32 µg/mL,+++ (+++ = MIC ≦ 4),+++ (+++ = MIC ≦ 4),+++ (+++ = MIC ≦ 4),+++ (+++ = MIC ≦ 4),–,–,–,–,–,–
Cc1cc(NC(=O)c2cc(NC(=O)c3cc(NC(=O)c4cc5ccccc5cn4)cn3C)cn2CCN2CCCC2)sn1 [Ib-65],+++ (+++ = MIC ≦ 4),>32 µg/mL,+++ (+++ = MIC ≦ 4),+++ (+++ = MIC ≦ 4),+++ (+++ = MIC ≦ 4),+++ (+++ = MIC ≦ 4),–,–,–,–,–,–
CCN(CCO)CCNC(=O)c1cc(NC(=O)c2ccc(NC(=O)c3cc(NC(=O)c4cc5ccccc5cn4)cn3C)cc2)cn1C [Ic-18],+++ (+++ = MIC ≦ 4),>32 µg/mL,+++ (+++ = MIC ≦ 4),+++ (+++ = MIC ≦ 4),+++ (+++ = MIC ≦ 4),+++ (+++ = MIC ≦ 4),–,–,–,–,–,–
COCn1cc(NC(=O)c2cc3ccccc3cn2)cc1C(=O)Nc1cc(C(=O)Nc2cc(C(=O)NCCN3CCOCC3)n(C)c2)n(C)c1 [Ib-72],+++ (+++ = MIC ≦ 4),>32 µg/mL,+++ (+++ = MIC ≦ 4),+++ (+++ = MIC ≦ 4),+++ (+++ = MIC ≦ 4),+++ (+++ = MIC ≦ 4),–,–,–,–,–,–
Cn1cc(NC(=O)c2ccc(NC(=O)c3cc(NC(=O)c4cc5ccccc5cn4)cn3C)cc2)cc1C(=O)NCCN1CCC(O)CC1 [Ic-8],+++ (+++ = MIC ≦ 4),>32 µg/mL,+++ (+++ = MIC ≦ 4),+++ (+++ = MIC ≦ 4),+++ (+++ = MIC ≦ 4),+++ (+++ = MIC ≦ 4),–,–,–,–,–,–
CN(C)CCSCCn1cc(NC(=O)c2cc3ccccc3cn2)cc1C(=O)Nc1cc(C(=O)Nc2cc(C(=O)NCCN3CCOCC3)n(C)c2)n(C)c1 [Ib-79],+++ (+++ = MIC ≦ 4),>32 µg/mL,+++ (+++ = MIC ≦ 4),+++ (+++ = MIC ≦ 4),+++ (+++ = MIC ≦ 4),+++ (+++ = MIC ≦ 4),–,–,–,–,–,–
Cn1cc(NC(=O)c2cc(NC(=O)c3cc(NC(=O)c4cc5ccccc5cn4)c[nH]3)cn2C)cc1C(=O)NCCN1CCC(F)CC1 [Ib-71],+++ (+++ = MIC ≦ 4),>32 µg/mL,+++ (+++ = MIC ≦ 4),+++ (+++ = MIC ≦ 4),+++ (+++ = MIC ≦ 4),+++ (+++ = MIC ≦ 4),–,–,–,–,–,–
Cn1cc(NC(=O)c2ccc(NC(=O)c3cc(NC(=O)c4cc5ccccc5cn4)cn3C)cc2)cc1C(=O)NCCN1CCCC1 [Ic-10],+++ (+++ = MIC ≦ 4),>32 µg/mL,+++ (+++ = MIC ≦ 4),+++ (+++ = MIC ≦ 4),+++ (+++ = MIC ≦ 4),+++ (+++ = MIC ≦ 4),–,–,–,–,–,–
Cn1cc(NC(=O)c2cc(NC(=O)c3cc(NC(=O)c4cc5ccccc5cn4)c[nH]3)cn2C)cc1C(=O)NCCN1CCSCC1 [Ib-75],–,–,–,–,–,–,< 4 µg/mL,> 32 µg/mL,< 4 µg/mL,< 4 µg/mL,< 4 µg/mL,< 4 µg/mL
CN(C)CCSCCn1cc(NC(=O)c2cc3ccccc3cn2)cc1C(=O)Nc1cc(C(=O)Nc2ccc3cnccc3c2)n(C)c1 [Ib-73],+++ (+++ = MIC ≦ 4),+++ (+++ = MIC ≦ 4),+++ (+++ = MIC ≦ 4),+++ (+++ = MIC ≦ 4),+++ (+++ = MIC ≦ 4),+++ (+++ = MIC ≦ 4),–,–,–,–,–,–
Cn1cc(NC(=O)c2cc(NC(=O)c3cc(NC(=O)c4nccc5ccccc45)cn3C)cn2C)cc1C(=O)NCCN1CCOCC1 [Ib-1],+++ (+++ = MIC ≦ 4),>32 µg/mL,+++ (+++ = MIC ≦ 4),–,–,+++ (+++ = MIC ≦ 4),–,–,–,–,–,–

# Source: patent US6777425B2, “Isoquinoline compounds having antiinfective activity” (Genesoft Pharmaceuticals, Inc., priority 2001, dated 2004)
